# pEC50: −log10 of the molar value. Like-named read-outs stand apart in the source and are kept apart here.
# Assays:
# HCMV TB40/E strain = experiment: Plaque reduction assay, HCMV TB40/E strain in human foreskin fibroblasts, single drugs and 2-drug combinations (Chou-Talalay); format: cell-based, human cytomegalovirus; settings: for Dose of drug alone at Fa 0.75: Fa 0.75, drug alone; for Dose of drug alone at Fa 0.9: Fa 0.9, drug alone; for Dose of drug alone at Fa 0.95: Fa 0.95, drug alone; for Dose of drug alone at Fa 0.97: Fa 0.97, drug alone; for Dose of drug alone at Fa 0.05: Fa (fraction of virus affected) 0.05, drug alone
# Experimental: The CMV strain used was TB40/E. The CMV strain was propagated and tittered in human foreskin fibroblasts (HFF) cells. Cell-free virus stocks and cell-associated clinical isolates were maintained at -70° C. Viral stocks were tittered by serial 10-fold dilution in 24-well tissue culture plates containing HFF monolayers overlaid with agarose-medium. After incubation for 7 to 14 days, plaques were enumerated, and virus titer was determined as plaque forming units (PFU) per milliliter (ml). Stocks of artemisone (10 mM), ganciclovir (10 mM), BDCRB (120 mM), brincidofovir (1 mM), maribavir (10 mM) and letermovir (10 mM) were prepared in DMSO or H2O.
# Cell monolayers were inoculated in 24-well culture plates with 0.2 ml of virus suspension containing 60 to 100 PFU per well. After adsorption for 60 -120 min at 37° C., the inoculum was removed, and culture medium was replaced with agarose-medium overlay containing serial concentrations of the tested drug(s). Plates were incubated for 7-14 days at 37° C. in a 5% CO2 incubator. Plaques were then counted microscopically.
# The effect of a combination of artemisone with each one of ganciclovir (HCMV DNA polymerase), BDCRB (HCMV terminase inhibitor), brincidofovir (HCMV DNA polymerase inhibitor), maribavir (HCMV UL97 kinase inhibitor) and letermovir (HCMV terminase inhibitor) was evaluated by the classical plaque reduction assay. The in vitro activity of each of the above mentioned antiviral compounds alone or in combination with artemisone was evaluated by the classical plaque reduction assay, using HCMV TB40/E strain in human foreskin fibroblasts cells. The concentration of each antiviral compound that reduced the plaque formation by 50% (EC50) was determined as previously described in Wolf DG et al., J Clin Invest. 1995;95:257-63. The individual EC50 values in human foreskin fibroblasts were as follows: artemisone EC50 - 1 µM; ganciclovir EC50 - 1 µM; maribavir EC50 - 1 µM; BDCRB EC50 - 0.5 µM; letermovir EC50 - 5 nM; brincidofovir EC50 -1 nM.
# For the 2-drug combination studies, the EC50 value of each drug was used to determine an equipotent ratio between the two compounds (EC50 of drug 1 / EC50 of drug 2). Serial 2-fold dilutions of a mixture comprising artemisone and another antiviral compound at initial concentrations equivalent to 4-fold the equipotent ratio were added to duplicate wells of cells infected with HCMV. Overall, 5 different concentrations of the drug combinations were used: 4xEC50, 2xEC50, 1xEC50,0.5xEC50,0.25xEC50. The cell monolayers were inoculated in 24-well culture plates with 0.2 ml of virus suspension containing 60 to 100 plaque-forming unit (PFU) per well; the Multiplicity of infection (MOI) was 0.001-0.002 PFU/cell).
# D1 and D2 are the doses of the two drugs, and Dx is a dose causing to x% effect (LD0.5 is EC50). Briefly, the software extrapolated a combination index (CI) representing the interaction between the two drugs at specified levels of virus inhibition (that is 50%, 75%, 90%, 95%) versus the percentages of the inhibition induced by each drug alone and in combination (equation 16 in Chou).
# A weighted average CI (CIwt) was then calculated for each combination as (CI50+ 2×CI75+3×CI90+4×CI95)/10, to access the drug combinatory effects.
# The dose reduction index (DRI) was then calculated as described in Chou. In general, the DRI measures the fold of dose reduction of each drug in the combination at a given effect level compared with the doses of each drug alone. For each one of the below tables: Fa - fraction of virus affected; doses are provided in µm.
# HCMV = experiment: Ex vivo HCMV infection of human decidual (placental) tissue organ cultures, viral mRNA copy number; format: cell-based, human cytomegalovirus; settings: for pEC50: Human betaherpesvirus 5; for Dose of drug alone at Fa 0.9: Fa 0.9, drug alone; for DRI (dose reduction index): combination artemisone + maribavir
# Experimental: Organ cultures were washed and stored at -80° C. until assayed. RNA was extracted, and the purified RNA samples were subjected to reverse transcription (RT), followed by quantitative real-time PCR. The viral mRNA copy number was normalized by the cellular housekeeping gene β-actin.
# We employed our model of HCMV infection in human decidual tissues (representing the maternal aspect of the chimeric human placenta), maintained as multi-cell-type 3D organ cultures as described in Weisblum Y. et al. J Virol 2011 85(24): 13204-13. doi: 10.1128/JVI.05749-11. For infection of the organ cultures, decidual tissues were placed in 48-well plates and inoculated with the virus (5x10^4 plaque forming units (PFU)/well) for 12 h to allow effective viral adsorption. The tissues were further monitored for viral infection and spread for 7 days. For determination of the drug EC50 values of in the tissues, serial drug concentrations: each drug separately or combination of the drugs were added to the infected decidual tissues during viral adsorption at any further medium replacement to keep the drug concentration constant. The results were compared to samples to which the drug was not added. The EC50 was defined as the drug concentration required to reduce the viral mRNA copy number by 50%. The effect of drug combinations was tested in accordance with the Chou-Talalay method. All comparative experiments were performed in parallel on tissues from the same donor.
# The dose reduction index (DRI) was then calculated as described in Chou. As described earlier, the DRI is a measure of how many folds the dose of each drug in a synergistic combination may be reduced at a given effect level compared with the doses of each drug alone. For each one of the below tables: Fa - fraction of virus affected; doses are provided in µm.
# [1] = Human betaherpesvirus 5, Fibroblast, Fa 0.5, drug alone, read-out: Dose of drug alone at Fa 0.5
# [2] = Human betaherpesvirus 5, Fibroblast, drug alone, human foreskin fibroblasts, read-out: EC50 (concentration that reduced the plaque formation by 50%)
compound,measurement,setting,value
COc1cccc(N2CCN(C3=Nc4c(F)cccc4[C@H](CC(=O)O)N3c3cc(C(F)(F)F)ccc3OC)CC2)c1 [letermovir],Dose of drug alone at Fa 0.75,HCMV TB40/E strain,0.00438 µm
same,Dose of drug alone at Fa 0.9,HCMV TB40/E strain,0.00952 µm
same,Dose of drug alone at Fa 0.95,HCMV TB40/E strain,0.01614 µm
same,Dose of drug alone at Fa 0.97,HCMV TB40/E strain,0.02351 µm
same,Dose of drug alone at Fa 0.05,HCMV TB40/E strain,2.51E-4 µm
same,pEC50,HCMV TB40/E strain; [1],8.70
same,pEC50,HCMV TB40/E strain; [2],8.30
same,DRI (dose reduction index),"HCMV TB40/E strain; combination artemisone + letermovir, Fa 0.05",0.5226
same,DRI (dose reduction index),"HCMV TB40/E strain; combination artemisone + letermovir, Fa 0.5",1.044
same,DRI (dose reduction index),"HCMV TB40/E strain; combination artemisone + letermovir, Fa 0.75",1.351
same,DRI (dose reduction index),"HCMV TB40/E strain; combination artemisone + letermovir, Fa 0.9",1.75
same,DRI (dose reduction index),"HCMV TB40/E strain; combination artemisone + letermovir, Fa 0.9, listed as Let",1.749
same,DRI (dose reduction index),"HCMV TB40/E strain; combination artemisone + letermovir, Fa 0.95",2.084
same,DRI (dose reduction index),"HCMV TB40/E strain; combination artemisone + letermovir, Fa 0.97",up to 2.4
same,DRI (dose reduction index),"HCMV TB40/E strain; combination artemisone + letermovir, Fa 0.97, listed as Let",2.362
CC(C)Nc1nc2cc(Cl)c(Cl)cc2n1[C@H]1O[C@@H](CO)[C@H](O)[C@@H]1O [maribavir],Dose of drug alone at Fa 0.75,HCMV TB40/E strain,0.8994 µm
same,Dose of drug alone at Fa 0.9,HCMV TB40/E strain,3.458 µm
same,Dose of drug alone at Fa 0.95,HCMV TB40/E strain,8.644 µm
same,Dose of drug alone at Fa 0.97,HCMV TB40/E strain,16.5865 µm
same,Dose of drug alone at Fa 0.05,HCMV TB40/E strain,0.00633 µm
same,pEC50,HCMV TB40/E strain; [1],6.63
same,pEC50,HCMV TB40/E strain; [2],6.00
same,DRI (dose reduction index),"HCMV TB40/E strain; combination artemisone + maribavir, Fa 0.05",2.039
same,DRI (dose reduction index),"HCMV TB40/E strain; combination artemisone + maribavir, Fa 0.5",5.884
same,DRI (dose reduction index),"HCMV TB40/E strain; combination artemisone + maribavir, Fa 0.75",8.738
same,DRI (dose reduction index),"HCMV TB40/E strain; combination artemisone + maribavir, Fa 0.9",12.98
same,DRI (dose reduction index),"HCMV TB40/E strain; combination artemisone + maribavir, Fa 0.9, listed as MBV",12.9771
same,DRI (dose reduction index),"HCMV TB40/E strain; combination artemisone + maribavir, Fa 0.95",16.9821
same,DRI (dose reduction index),"HCMV TB40/E strain; combination artemisone + maribavir, Fa 0.97",20.6
same,DRI (dose reduction index),"HCMV TB40/E strain; combination artemisone + maribavir, Fa 0.97, listed as MBV",20.5640
same,pEC50,"HCMV; ex vivo, Fa 0.5, drug alone, read-out: Dose of drug alone at Fa 0.5",6.73
same,pEC50,"HCMV; sole drug, ex vivo decidual tissues, read-out: EC50 (concentration required to reduce the viral mRNA copy number by 50%)",6.60
same,Dose of drug alone at Fa 0.05,"HCMV; ex vivo, Fa 0.05, drug alone",0.01861 µm
same,Dose of drug alone at Fa 0.75,"HCMV; ex vivo, Fa 0.75, drug alone",0.4396 µm
same,Dose of drug alone at Fa 0.9,HCMV; ex vivo,1.03 µm
same,Dose of drug alone at Fa 0.9,"HCMV; ex vivo, listed as MBV",1.038 µm
same,Dose of drug alone at Fa 0.95,"HCMV; ex vivo, Fa 0.95, drug alone",1.862 µm
same,Dose of drug alone at Fa 0.97,"HCMV; ex vivo, Fa 0.97, drug alone",2.822 µm
same,DRI (dose reduction index),"HCMV; ex vivo, Fa 0.05",0.66
same,DRI (dose reduction index),"HCMV; ex vivo, Fa 0.5",0.982
same,DRI (dose reduction index),"HCMV; ex vivo, Fa 0.75",1.139
same,DRI (dose reduction index),"HCMV; ex vivo, Fa 0.9",1.3
same,DRI (dose reduction index),"HCMV; ex vivo, Fa 0.9, listed as MBV",1.321
same,DRI (dose reduction index),"HCMV; ex vivo, Fa 0.95, listed as MBV",1.461
same,DRI (dose reduction index),"HCMV; ex vivo, Fa 0.97",1.57
brincidofovir,pEC50,"HCMV TB40/E strain; Fa 0.5, drug alone, read-out: Dose of drug alone at Fa 0.5",9.19
same,Dose of drug alone at Fa 0.75,HCMV TB40/E strain,0.001 µm
same,Dose of drug alone at Fa 0.9,HCMV TB40/E strain,0.002 µm
same,Dose of drug alone at Fa 0.95,HCMV TB40/E strain,0.002 µm
same,Dose of drug alone at Fa 0.97,HCMV TB40/E strain,0.003 µm
same,Dose of drug alone at Fa 0.05,HCMV TB40/E strain,1.87E-4 µm
same,DRI (dose reduction index),"HCMV TB40/E strain; combination artemisone + brincidofovir, Fa 0.05",1.43
same,DRI (dose reduction index),"HCMV TB40/E strain; combination artemisone + brincidofovir, Fa 0.5",1.48
same,DRI (dose reduction index),"HCMV TB40/E strain; combination artemisone + brincidofovir, Fa 0.75",1.5
same,DRI (dose reduction index),"HCMV TB40/E strain; combination artemisone + brincidofovir, Fa 0.9",up to 1.5
same,DRI (dose reduction index),"HCMV TB40/E strain; combination artemisone + brincidofovir, Fa 0.9, listed as BCV",1.52
same,DRI (dose reduction index),"HCMV TB40/E strain; combination artemisone + brincidofovir, Fa 0.95",1.53
same,DRI (dose reduction index),"HCMV TB40/E strain; combination artemisone + brincidofovir, Fa 0.97",1.54
same,pEC50,"HCMV TB40/E strain; drug alone, human foreskin fibroblasts, read-out: EC50 (concentration that reduced the plaque formation by 50%)",9.00
